The values below come from ChEMBL document CHEMBL5236628 (J Med Chem, 2022).

The structures appear in SMILES notation. Converted amounts (≈) assume the structure as drawn.

A short description of data set [1]: Drug accumulation in lysosomes of human erythrocytes infected with chloroquine sensitive Plasmodium falciparum NF54 by live cell imaging analysis. Format: ADME, cell-based. Conditions: erythrocyte; call rule not given here.
A further data set in a line: physchem. Conditions: buffer, pH 7.4.
The test system of data set [2] is Plasmodium falciparum. Briefly: Antiplasmodial activity against multidrug resistant Plasmodium falciparum K1 infected in human erythrocytes incubated for 48 hrs followed by addition of [3H]-hypoxanthine and measured after 24 hrs by beta-plate liquid scintillation counting method. Format: functional, organism-based.
Data set [3] in a line: Drug accumulation in mitochondria of human erythrocytes infected with chloroquine sensitive Plasmodium falciparum NF54 by live cell imaging analysis. The data set is classed as ADME. Conditions: erythrocyte.
Data set [4] in a line: Drug accumulation in neutral lipid droplets of human erythrocytes infected with chloroquine sensitive Plasmodium falciparum NF54 by live cell imaging analysis. The data set is classed as ADME, cell-based. The settings on record: erythrocyte.
For data set [5], the system named is Plasmodium falciparum. Briefly: Antiplasmodial activity against chloroquine sensitive Plasmodium falciparum NF54 infected in human erythrocytes incubated for 48 hrs followed by addition of [3H]-hypoxanthine and measured after 24 hrs by beta-plate liquid scintillation counting method. Format: functional, organism-based.
Data set [6] is described as follows: Drug accumulation in endoplasmic reticulum of human erythrocytes infected with chloroquine sensitive Plasmodium falciparum NF54 by live cell imaging analysis. The data set is classed as ADME, subcellular. Conditions: erythrocyte.
Data set [7] in a line: Drug accumulation in nucleus of human erythrocytes infected with chloroquine sensitive Plasmodium falciparum NF54 by live cell imaging analysis. The data set is classed as ADME, subcellular. Conditions: erythrocyte.
Data set [8] is described as follows: Drug accumulation in hemozoin crystal of human erythrocytes infected with chloroquine sensitive Plasmodium falciparum NF54 by live cell imaging analysis. The data set is classed as ADME, cell-based. The settings on record: erythrocyte.
In data set [9] the test system is Plasmodium falciparum. Briefly: Antiplasmodial activity against Plasmodium falciparum assessed as reduction in parasite viability incubated for 72 hrs by LDH assay. Format: functional, organism-based.

As for `O=[N+]([O-])c1ccc(NCCn2c(NC3CCN(CCc4ccc(-c5nc(C(F)(F)F)no5)cc4)CC3)nc3ccccc32)c2nonc12`, the Drug uptake result was “Active” in data set [1]; “Active” in data set [3]; “Active” in data set [4]; “Active” in [6]; “Not Active” in [7]; “Active” in data set [8]. Further, in the data set “physchem”, the solubility (kinetic) at 2 h was 120 µM (≈ 79.5 µg/mL). In addition, the 50% inhibitory concentration (IC50) in the data set on Plasmodium falciparum [2] amounted to 370 nM; with Plasmodium falciparum [5], 140 nM.

For `COc1ccc(CCN2CCC(Nc3nc4cc(Cl)c(Cl)cc4[nH]3)CC2)cc1`, in the data set with Plasmodium falciparum [9], the half-inhibitory concentration (IC50) came out at 83 nM.
